{"source": "paper PMC12610274", "about": "“Identification of Marrubiin as a Cathepsin C Inhibitor for Treating Rheumatoid Arthritis” (Molecules, 2025)", "key": {"[1]": {"assay": "Safety evaluation in vivo (body weight, toxic reactions, H&E staining)", "conditions": "mice, high-dose group (30 mg/kg)", "description": "A total of 25 C57BL/6 mice (6–8 weeks old, weighing approximately 20 g, with equal numbers of males and females) were randomly divided into five groups. Mice in the compound-treated groups were orally administered the compound once daily at doses of 0.3, 3, and 30 mg/kg for 7 consecutive days. […] Mice in the normal group were given an equal volume of normal saline at the same time points. The body weight, death rate, and behavior were observed and recorded daily for one week. After 7 days, bone marrow and blood samples were collected from the mice and lysed using 8% Triton X-100 buffer. The lysates were stored at −20 °C until testing. The activity assays for CTSC and NSPs were performed as described above. The mice were anesthetized and the tissues were taken for H&E staining."}, "[2]": {"system": "LPS-induced NO release by RAW 264.7 macrophages", "assay": "LPS-induced NO release, Griess reagent", "assay_type": "cell-based", "conditions": "Mus musculus, RAW264.7; LPS-stimulated RAW 264.7, 24 h", "description": "RAW264.7 cells in the logarithmic growth phase were counted and diluted to a concentration of 6 × 10^4 cells/mL. After thorough mixing, the cell suspension was seeded into 48-well plates and incubated in a humidified atmosphere containing 5% CO2 at 37 °C. Following 24 h of incubation, the culture medium was carefully aspirated, and the cells were gently washed with phosphate-buffered saline. […] After 1 h of pre-incubation, 30 μL of lipopolysaccharide (1 μg/mL) was added to each well except for the blank control group, which remained unstimulated. Following an additional 24 h incubation under identical conditions, the culture supernatants were collected to assess NO production using the Griess reagent assay. Concentrations of pro-inflammatory cytokines and chemokines were determined using commercially available ELISA kits according to the protocols."}}}
{"molecule": "C[C@@H]1C[C@H]2OC(=O)[C@@]3(C)CCC[C@@](C)([C@@H]23)[C@@]1(O)CCc1ccoc1", "note": "[Marrubiin, marrubiin]", "values": [{"measurement": "toxic reactions and body weight", "setting": "[1]; 7-day continuous administration", "value": "no toxic reactions or significant weight loss were observed"}, {"measurement": "H&E staining of tissues and organs (heart, liver, spleen, lung, kidney)", "setting": "[1]; 7 days", "value": "No pathological changes"}, {"measurement": "IC50", "setting": "[2]", "value": 830, "unit": "nM"}]}
